Test results published in US10030020B2, “Spirocycle compounds and methods of making and using same” (Abide Therapeutics, Inc., priority 2016, dated 2018).

What was measured:
Format in all cases: biochemical
[1] = molecular target: MAGL (Mus musculus (Mouse), UniProt O35678); test: In vitro competitive activity-based protein profiling (mouse brain membrane fraction or cell lysates), MAGL band; conditions: mouse proteome; for inhibition at 1 µM: read-out: MAGL % Inh 1 μM (mouse); for IC50: competitive ABPP
Chain of MAGL (O35678 whole entry): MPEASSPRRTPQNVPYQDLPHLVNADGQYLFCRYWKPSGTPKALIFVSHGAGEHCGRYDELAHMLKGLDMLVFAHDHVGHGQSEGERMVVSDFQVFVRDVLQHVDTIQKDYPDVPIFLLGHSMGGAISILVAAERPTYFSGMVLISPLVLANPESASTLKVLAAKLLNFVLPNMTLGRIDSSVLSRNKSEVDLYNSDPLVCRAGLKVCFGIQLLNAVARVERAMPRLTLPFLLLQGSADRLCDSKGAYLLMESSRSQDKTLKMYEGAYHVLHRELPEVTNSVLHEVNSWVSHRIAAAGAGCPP
Description: (§1) In Vitro Competitive Activity-Based Protein Profiling.
(§2) Proteomes (mouse brain membrane fraction or cell lysates) (50 μL, 1.0 mg/mL total protein concentration) were preincubated with varying concentrations of inhibitors at 37° C. After 30 min, FP—Rh (1.0 μL, 50 μM in DMSO) was added and the mixture was incubated for another 30 min at 37° C. Reactions were quenched with SDS loading buffer (50 μL-4×) and run on SDS-PAGE.

[2] = molecular target: ABHD6 (Mus musculus (Mouse), UniProt Q8R2Y0); test: In vitro competitive activity-based protein profiling (mouse brain membrane fraction or cell lysates), ABHD6 band; conditions: mouse proteome; for inhibition at 1 µM: read-out: ABHD6 % Inh 1 μM (mouse); for IC50: competitive ABPP
Chain of ABHD6 (Q8R2Y0 whole entry): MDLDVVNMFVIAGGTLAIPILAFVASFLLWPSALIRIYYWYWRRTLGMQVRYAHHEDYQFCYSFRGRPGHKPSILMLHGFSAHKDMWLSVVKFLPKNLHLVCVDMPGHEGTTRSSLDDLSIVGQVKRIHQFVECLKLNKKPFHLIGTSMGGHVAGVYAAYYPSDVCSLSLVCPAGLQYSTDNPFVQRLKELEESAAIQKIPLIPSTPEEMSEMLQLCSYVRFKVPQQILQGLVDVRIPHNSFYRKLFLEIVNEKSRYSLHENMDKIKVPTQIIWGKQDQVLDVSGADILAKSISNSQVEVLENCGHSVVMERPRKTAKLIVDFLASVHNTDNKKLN
Description: as §1
as §2, with “SDS-PAGE. Following gel imaging, serine hydrolase activity was determined by measuring fluorescent intensity of gel bands corresponding to MAGL, ABHD6 and FAAH using ImageJ 1.43u software.” for “SDS-PAGE.”

[3] = molecular target: FAAH (Mus musculus (Mouse), UniProt O08914); test: In vitro competitive activity-based protein profiling (mouse brain membrane fraction or cell lysates), FAAH band; conditions: mouse proteome; for inhibition at 1 µM: read-out: FAAH % Inh 1 μM (mouse); for IC50: competitive ABPP
Chain of FAAH (O08914 whole entry): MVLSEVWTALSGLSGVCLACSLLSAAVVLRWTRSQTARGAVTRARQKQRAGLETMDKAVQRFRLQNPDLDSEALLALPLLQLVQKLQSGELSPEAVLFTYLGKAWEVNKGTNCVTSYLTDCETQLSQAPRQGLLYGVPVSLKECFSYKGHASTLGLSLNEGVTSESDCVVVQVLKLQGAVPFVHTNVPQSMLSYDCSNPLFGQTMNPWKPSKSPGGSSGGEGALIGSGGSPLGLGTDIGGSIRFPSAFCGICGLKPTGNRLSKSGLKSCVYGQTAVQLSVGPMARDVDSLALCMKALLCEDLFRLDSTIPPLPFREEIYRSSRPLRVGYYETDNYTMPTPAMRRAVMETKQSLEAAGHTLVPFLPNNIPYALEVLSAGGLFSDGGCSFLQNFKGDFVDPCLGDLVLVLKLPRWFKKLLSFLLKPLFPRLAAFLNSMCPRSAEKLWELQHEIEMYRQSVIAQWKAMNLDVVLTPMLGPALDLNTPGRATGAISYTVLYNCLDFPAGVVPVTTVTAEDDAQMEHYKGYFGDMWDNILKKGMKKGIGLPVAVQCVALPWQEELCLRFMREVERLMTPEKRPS
Description: as §1
as §2, with “SDS-PAGE. Following gel imaging, serine hydrolase activity was determined by measuring fluorescent intensity of gel bands corresponding to MAGL, ABHD6 and FAAH using ImageJ 1.43u software.” for “SDS-PAGE.”

Row | Structure (SMILES) | inhibition at 1 µM [1] | IC50 [1] | inhibition at 1 µM [2] | IC50 [2] | inhibition at 1 µM [3] | IC50 [3]
1 | CCN1CCN(c2cccc(CN3CCCC34CCN(C(=O)OC(C(F)(F)F)C(F)(F)F)CC4)c2Cl)CC1 [Example 116, 1,1,1,3,3,3-Hexafluoropropan-2-yl 1-(2-chloro-3-(4-ethylpiperazin-1-yl)benzyl)-1,8-diazaspiro[4.5]decane-8-carboxylate] | > 75% | < 100 nM | < 25% | > 1000 nM | < 25% | > 1000 nM
2 | O=C(OC(C(F)(F)F)C(F)(F)F)N1CCC2(CCCN2Cc2cccc(N3CCC4(CCOCC4)C3)c2Cl)CC1 [Example 117, 1,1,1,3,3,3-Hexafluoropropan-2-yl 1-(2-chloro-3-(8-oxa-2-azaspiro[4.5]decan-2-yl)benzyl)-1,8-diazaspiro[4.5]decane-8-carboxylate] | > 75% | – | < 25% | > 1000 nM | < 25% | > 1000 nM
3 | O=C(OC(C(F)(F)F)C(F)(F)F)N1CCC2(CCCN2Cc2ccc3c(c2)OCCO3)CC1 [Example 126, 1,1,1,3,3,3-Hexafluoropropan-2-yl 1-(2,3-dihydro-1,4-benzodioxin-6-ylmethyl)-1,8-diazaspiro[4.5]decane-8-carboxylate] | > 75% | < 100 nM | 25 to 75% | > 1000 nM | < 25% | > 1000 nM
4 | O=C(OC(C(F)(F)F)C(F)(F)F)N1CCC2(CCCN2Cc2ccc(N3CCOCC3)c(Cl)c2)CC1 [Example 127, 1,1,1,3,3,3-Hexafluoropropan-2-yl 1-(3-chloro-4-morpholinobenzyl)-1,8-diazaspiro[4.5]decane-8-carboxylate] | > 75% | – | 25 to 75% | > 1000 nM | < 25% | > 1000 nM

The next lines start with the values.

Row | inhibition at 1 µM [1] | IC50 [1] | inhibition at 1 µM [2] | IC50 [2] | inhibition at 1 µM [3] | IC50 [3] | Structure (SMILES)
5 | > 75% | < 100 nM | < 25% | > 1000 nM | < 25% | > 1000 nM | O=C(OC(C(F)(F)F)C(F)(F)F)N1CCC2(CCCN2Cc2cccc(N3CC4COCC4C3)c2Cl)CC1 (stereo not drawn) [Example 112, 1,1,1,3,3,3-Hexafluoropropan-2-yl 1-(2-chloro-3-(tetrahydro-1H-furo[3,4-c]pyrrol-5(3H)-yl)benzyl)-1,8-diazaspiro[4.5]decane-8-carboxylate]
6 | > 75% | < 100 nM | < 25% | > 1000 nM | < 25% | > 1000 nM | CS(=O)(=O)N1CCN(c2cccc(CN3CCCC34CCN(C(=O)OC(C(F)(F)F)C(F)(F)F)CC4)c2Cl)CC1 [Example 113, 1,1,1,3,3,3-Hexafluoropropan-2-yl 1-(2-chloro-3-(4-(methylsulfonyl)piperazin-1-yl)benzyl)-1,8-diazaspiro[4.5]decane-8-carboxylate]
7 | > 75% | < 100 nM | 25 to 75% | > 1000 nM | < 25% | > 1000 nM | CC(=O)N1CCN(c2cccc(CN3CCCC34CCN(C(=O)OC(C(F)(F)F)C(F)(F)F)CC4)c2Cl)CC1 [Example 114, 1,1,1,3,3,3-Hexafluoropropan-2-yl 1-(3-(4-acetylpiperazin-1-yl)-2-chlorobenzyl)-1,8-diazaspiro[4.5]decane-8-carboxylate]
8 | > 75% | – | < 25% | > 1000 nM | < 25% | > 1000 nM | O=C(OC(C(F)(F)F)C(F)(F)F)N1CCC2(CCCN2Cc2cccc(N3CCN(C4CC4)CC3)c2Cl)CC1 [Example 115, 1,1,1,3,3,3-Hexafluoropropan-2-yl 1-(2-chloro-3-(4-cyclopropylpiperazin-1-yl)benzyl)-1,8-diazaspiro[4.5]decane-8-carboxylate]
